Results published in BindingDB's records for patent US11147816 (Genuv, 2021).

Key:
[1] = biological target: Dual specificity mitogen-activated protein kinase kinase 1 (Homo sapiens, UniProt Q02750); test: MEK 1/2 inhibition
[2] = biological target: Dual specificity mitogen-activated protein kinase kinase 2 (Homo sapiens, UniProt P36507); test: MEK 1/2 inhibition
Sequence of Dual specificity mitogen-activated protein kinase kinase 2 (P36507 whole entry): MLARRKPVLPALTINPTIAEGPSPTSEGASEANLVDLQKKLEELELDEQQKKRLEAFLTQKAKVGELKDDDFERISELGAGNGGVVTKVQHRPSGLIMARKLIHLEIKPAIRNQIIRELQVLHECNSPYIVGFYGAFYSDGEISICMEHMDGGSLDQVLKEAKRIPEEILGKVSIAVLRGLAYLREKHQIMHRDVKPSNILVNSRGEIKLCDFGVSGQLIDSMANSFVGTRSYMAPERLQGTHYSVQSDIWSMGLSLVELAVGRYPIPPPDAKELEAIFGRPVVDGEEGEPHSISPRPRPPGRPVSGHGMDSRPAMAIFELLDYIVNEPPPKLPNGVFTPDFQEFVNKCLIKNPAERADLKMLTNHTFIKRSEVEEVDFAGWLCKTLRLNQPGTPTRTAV

Sequence of Dual specificity mitogen-activated protein kinase kinase 1 (Q02750 whole entry): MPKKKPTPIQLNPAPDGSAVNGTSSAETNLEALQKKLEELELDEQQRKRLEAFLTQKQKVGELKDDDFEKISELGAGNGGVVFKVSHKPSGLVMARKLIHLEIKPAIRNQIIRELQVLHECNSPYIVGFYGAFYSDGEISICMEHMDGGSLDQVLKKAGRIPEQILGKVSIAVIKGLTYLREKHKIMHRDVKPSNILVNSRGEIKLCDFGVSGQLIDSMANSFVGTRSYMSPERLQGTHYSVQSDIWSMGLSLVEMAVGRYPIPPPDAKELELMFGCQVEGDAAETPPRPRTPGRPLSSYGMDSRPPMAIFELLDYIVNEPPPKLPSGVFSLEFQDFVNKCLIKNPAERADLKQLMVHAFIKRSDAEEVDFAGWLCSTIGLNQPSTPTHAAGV

O=C(NOC[C@@H](O)CO)c1cc(Br)c(F)c(F)c1Nc1ccc(I)cc1F [US11147816, PD318088]
IC50 [1]: 1.4 nM

COc1cc(F)c(F)c(Nc2ccc(I)cc2F)c1NS(=O)(=O)C1(C[C@H](O)CO)CC1 [US11147816, Refametinib (RDEA119, Bay]
IC50 [2]: 47 nM
